Results reported in PubChem BioAssay AID179 (DTP/NCI, 2004).
Activity calls are given as the source filed them.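 How the source made its calls: active means compounds giving half or more protection of infected cells from virus-caused growth loss, again on retest; inactive means the rest.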

Tested on: CEM cells HIV-1 protection, formazan growth assay
Assay: NCI AIDS Antiviral Assay
Conditions: for IC50: measured here: growth of uninfected CEM cells
In short: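 Protection of CEM cells against HIV-1 measured as cell growth via soluble formazan read-out, with five concentrations tested on both infected and uninfected cells; failure to protect may reflect toxicity.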

Row | Structure (SMILES) | EC50 [µM] | IC50 [µM] | outcome
1 | C[n+]1cn(-c2nc3ccccc3nc2[N-]S(=O)(=O)c2ccccc2)c2ccccc21 | > 200 | > 200 | –
2 | NS(=O)(=O)c1ccc(N=Cc2cc(Cl)cc(Cl)c2O)cc1 | > 200 | 16.6 | –
3 | CCOC(=O)C(=O)NCCCN1CCOCC1 | > 1020 | > 1020 | –
4 | O=c1c(I)c[nH]cc1I | > 200 | > 200 | –
5 | CC1(C)OC(=O)C(=Cc2ccc(O)cc2)C(=O)O1 | > 1000 | 550 | –
6 | O=C1Sc2ccccc2C(=O)N2CSCC12 (stereo not given) | – | > 200 | inactive
7 | CCCCNS(=O)(=O)c1ccc(-c2ccc3c(c2)-c2ccc(S(=O)(=O)NCCCC)cc2S3(=O)=O)cc1 | > 12.9 | > 12.9 | –
8 | COc1cc2ccc1OCc1cccc(n1)COc1ccc(cc1OC)C=Nc1ccc(cc1)N=C2 | > 200 | > 200 | –
9 | N#CCCN(CCC#N)c1ccc(/C=C2\SC(=S)NC2=O)cc1 | > 200 | > 200 | –
10 | C=CCc1cccc2cc(C(=O)Nc3nc(C45CC6CC(CC(C6)C4)C5)cs3)c(=O)oc12 | > 100 | > 100 | –
11 | CCC12CCCN(Cc3ccccc3)C1c1c(n(C)c3ccccc13)[C@H](C(=O)OC)C2 (stereo not given in full) | > 12.6 | > 12.6 | –
12 | CCN(CC)CCn1c2c3ccccc3ccc2c2oc(=O)c3ccccc3c21 | > 16.2 | > 16.2 | –
13 | COc1ccc(C(Nc2nc3c(ncn3COCCOP(=O)(OCOC(=O)C(C)(C)C)OCOC(=O)C(C)(C)C)c(=O)[nH]2)(c2ccccc2)c2ccccc2)cc1 | > 100 | 8.71 | –
14 | COc1ccc(/C=C(\C)C=O)cc1 | > 204 | > 204 | –
15 | O=C(/C=C/c1ccccc1)NC1C=Nc2ccc([N+](=O)[O-])cc2NC1=O (stereo not given) | > 102 | 93.3 | –
16 | COc1ccc(C=C2C(=O)OC(C)(C)OC2=O)cc1 | > 501 | 151 | –
17 | CN1CCCC2[C@@H]3CCC4=C(O)C(=O)CC[C@]4(C)C3CC[C@@]21C (stereo not given in full) | > 74.1 | > 74.1 | –
18 | O=C(COc1ccc(/C=C/C(=O)c2ccc(Cl)cc2)cc1)Nc1c(Cl)cccc1Cl | > 40.7 | > 40.7 | –
19 | COc1ccc(CC2(O)C3CC4CCC2C4C3)cc1 (stereo not given) | > 200 | 87.1 | –
20 | CN(C)c1ccccc1CC(c1c[nH]c2ccccc12)c1c[nH]c2ccccc12 | > 19.1 | > 19.1 | –
21 | O=[N+]([O-])c1ccc(CSCc2ccc([N+](=O)[O-])cc2)cc1 | > 200 | > 200 | –
22 | O=C(OC1CCCC1)C1(O)CCCCC1 | > 200 | > 200 | –

Row | Structure (SMILES) | EC50 [µM] | IC50 [µM] | outcome
23 | COC(CN(C(C)=O)C1CCC2(SCCS2)c2[nH]c3ccccc3c21)OC (stereo not given) | > 200 | 123 | –
24 | CCNC(=S)N/N=C(\C)c1cccc(C)n1 | > 2 | 1.1 | –
25 | COCCOCN(C(=O)C1=CCC2(CC1)OCCO2)c1ccccc1I | > 200 | > 200 | –
26 | COc1ccc2nc3ccc(OC)cc3c(S(=O)CCCl)c2c1 (stereo not given) | > 200 | 3.63 | –
27 | Cc1cccc(N=C2NC(=O)C(CC(=O)Nc3cccc(C)c3C)S2)c1 (stereo not given) | > 70.8 | > 70.8 | –
28 | Oc1ccc2c(c1)OCC1(O)Cc3cc(O)c(O)cc3C21 (stereo not given) | – | – | inactive
29 | CCCCN=c1ssc(=O)n1CCCC | > 200 | 26.3 | –
30 | O=C1/C(=C/c2ccc(Br)s2)NC(=S)N1CN1CCCCC1 | > 200 | 38 | –
31 | O=C1NCCN1/N=C/c1ccc([N+](=O)[O-])o1 | > 200 | 120 | –
32 | CC(C)(C)C(=O)O[C@@H]1COC2C(O)COC21 (stereo not given in full) | > 1070 | 977 | –
33 | CCN1c2nc3ccccc3nc2N(CC)c2nc3ccccc3nc21 | > 200 | 41.7 | –
34 | Cc1ccc(-c2c(C#N)c(-c3ccc(Cl)cc3)c(C#N)c(=O)n2NS(=O)(=O)c2ccc(C)cc2)cc1 | > 200 | 20.9 | –
35 | CC1=CC2OC3CC4OC(=O)/C=C/C=C/C(C(C)O)OCC(O)C(C)CC(=O)OCC2(CC1O)C4(C)C31CO1 (stereo not given) | > 0.2 | 0.0631 | –
36 | CCCCc1ccc(N=C(N)N)cc1 | > 200 | 28.8 | –
37 | CCC(=O)NC1Cc2cc(C)cc(C)c21 (stereo not given) | > 89.1 | > 89.1 | –
38 | CCCCCCC(=O)N1SC(NC(=O)OC)=Nc2ccccc21 | > 77.6 | 10.2 | –
39 | COc1cc2c(c3oc(=O)cc(C)c13)C(=O)[C@H](C)[C@@H](C)O2 | > 200 | 126 | –
40 | Nc1nc(Cl)cc(NCC2(CO)CCC2)n1 | > 200 | 191 | –
41 | CCCCCCCC(=O)OC[C@@H](C[As](=O)(O)O)OC(=O)CCCCCCC | > 200 | 9.33 | –
42 | CC1CN=C(Nc2cccc(C(F)(F)F)c2)S1 (stereo not given) | > 200 | 57.5 | –
43 | COC(=O)C12CCC(C)(C)CC1C1=CCC3C4(C)CC(O)C(O)C(C)(C(=O)OC)C4CCC3(C)C1(CO)CC2 (stereo not given) | – | – | inactive
44 | CC(=O)c1c2c(cc3c1CC1(C3)Cc3cc4c(c(C(C)=O)c3C1)CCC4)CCC2 | > 18.6 | > 18.6 | –

Row | Structure (SMILES) | EC50 [µM] | IC50 [µM] | outcome
45 | O=c1[nH]c(=O)n(C2OC(CO)C(O)C2O)cc1OCCCc1ccccc1 (stereo not given) | > 200 | > 200 | –
46 | COC(=O)C1=C(C(=O)OC)C2C=CC1C1C(Cl)=C(Cl)C21 (stereo not given) | – | – | inactive
47 | COC12[C@@H]3N[C@@H]3CN1C1=C(C(=O)C(NCCSSCCNC3=C(C)C(=O)C4=C(C3=O)C(COC(N)=O)[C@]3(OC)C5N[C@@H]5CN43)=C(C)C1=O)[C@@H]2COC(N)=O (stereo not given in full) | > 200 | 0.0631 | –
48 | COc1cc(OC)c(Oc2cccc(OC)c2OC)c(OC)c1 | > 16.2 | > 16.2 | –
49 | COc1ccc(CC2Cc3ccccc3CC(=O)N2)cc1OC (stereo not given) | > 200 | 17.8 | –
50 | O=c1[nH]c(=O)n(CCOc2ccccc2)cc1Nc1ccccc1 | > 200 | > 200 | –
51 | COc1ccc(/C=N/N=C(N)N)c(C(=O)O)c1OC | – | – | inactive
52 | CC1OC(OCC2OC(Oc3c(-c4ccc(O)c(O)c4)oc4cc(O)cc(O)c4c3=O)C(O)C(O)C2O)C(O)C(O)C1O (stereo not given) | > 200 | 1.02 | inactive
53 | CCc1n[nH]c(=O)n1NC(=O)CCCC(=O)O | > 200 | > 200 | –
54 | Cc1ccccc1C1=C(C(=O)Nc2ccc(Cl)c(Cl)c2)NC(=S)NC1N (stereo not given) | > 617 | > 617 | –
55 | O=C1C(=Nc2ccc(Nc3ccccc3)cc2)Oc2ccccc21 | > 200 | 3.09 | –
56 | COC(=O)C(Cc1ccc2c(c1)CCC2)Cc1ccc2c(c1)CCC2 | > 200 | 112 | –
57 | O=C(CCCC(=O)Nc1ccc(Cl)cc1Cl)CC(=O)c1ccc2ccccc2c1 | > 417 | > 417 | –
58 | CC12CCC(CC1(Cl)Cl)C2 (stereo not given) | > 200 | > 200 | –
59 | CCOC(=O)c1c(C)c(C(C)=O)c2ccccn12 | > 145 | 95.5 | –
60 | O=C1NC(=S)N/C1=C\c1ccc(Cl)cc1 | > 200 | 105 | –
61 | O=C1/C(=C\c2ccc([N+](=O)[O-])cc2)Sc2scc(-c3ccc(O)c(O)c3)[n+]21 | > 200 | 5.25 | –
62 | COc1cc(C)cc2c1C(=O)C(Br)=CC2=O | > 200 | 1.95 | –
63 | O=C(c1ccc(NCN2C(=O)CCC2=O)cc1)c1ccc(NCN2C(=O)CCC2=O)cc1 | > 30.2 | > 30.2 | –
64 | O=Cc1ccc(/C=C2\C=Cc3ccccc32)cc1 | > 58.9 | > 58.9 | –
